Source: EP2578210A1, “Rottlerin for the treatment of pulmonary hypertension and related diseases and disorders” (ATB Innovation Ltd., priority 2011, dated 2013)
pEC50, pIC50: −log10 of the molar value.

Columns and labels:
PKCδ = PKCδ (Homo sapiens, UniProt Q05655); settings: in vitro studies; cited from earlier work
other PKC isozymes = settings: in vitro studies; cited from earlier work
Kv7.2 = target: T1, Kv7.2 (Homo sapiens, UniProt O43526); test: Two-electrode current recording of human KCNQ (Kv7) channels heterologously expressed in Xenopus laevis oocytes; format: cell-based; settings: different concentrations
T1 construct: expressed in transfected cells; host or cells: Xenopus laevis oocytes
From the text: (§1) Rottlerin was applied at different concentrations to the expressed Kv7 channels.

Kv7.1 = target: T2, Kv7.1 (Homo sapiens, UniProt P51787); test: as above; format: cell-based
T2 construct: expressed in transfected cells; host or cells: Xenopus laevis oocytes
From the text: as §1

Kv7.4 = target: T3, Kv7.4 (Homo sapiens, UniProt P56696); test: as above; format: cell-based
T3 construct: expressed in transfected cells; host or cells: Xenopus laevis oocytes
From the text: as §1

Kv7.3 = target: T4, Kv7.3 (Homo sapiens, UniProt O43525); test: as above; format: cell-based; settings: different concentrations
T4 construct: expressed in transfected cells; host or cells: Xenopus laevis oocytes
From the text: as §1

Kv7.5 = target: T5, Kv7.5 (Homo sapiens, UniProt Q9NR82); test: as above; format: cell-based; settings: different concentrations
T5 construct: expressed in transfected cells; host or cells: Xenopus laevis oocytes
From the text: as §1

Kv7.1/KCNE1 = target: T6, Kv7.1/KCNE1 (Homo sapiens, UniProt P51787); test: as above; format: cell-based
T6 construct: expressed in transfected cells; host or cells: Xenopus laevis oocytes
From the text: as §1

T3 sequence (P56696 whole entry): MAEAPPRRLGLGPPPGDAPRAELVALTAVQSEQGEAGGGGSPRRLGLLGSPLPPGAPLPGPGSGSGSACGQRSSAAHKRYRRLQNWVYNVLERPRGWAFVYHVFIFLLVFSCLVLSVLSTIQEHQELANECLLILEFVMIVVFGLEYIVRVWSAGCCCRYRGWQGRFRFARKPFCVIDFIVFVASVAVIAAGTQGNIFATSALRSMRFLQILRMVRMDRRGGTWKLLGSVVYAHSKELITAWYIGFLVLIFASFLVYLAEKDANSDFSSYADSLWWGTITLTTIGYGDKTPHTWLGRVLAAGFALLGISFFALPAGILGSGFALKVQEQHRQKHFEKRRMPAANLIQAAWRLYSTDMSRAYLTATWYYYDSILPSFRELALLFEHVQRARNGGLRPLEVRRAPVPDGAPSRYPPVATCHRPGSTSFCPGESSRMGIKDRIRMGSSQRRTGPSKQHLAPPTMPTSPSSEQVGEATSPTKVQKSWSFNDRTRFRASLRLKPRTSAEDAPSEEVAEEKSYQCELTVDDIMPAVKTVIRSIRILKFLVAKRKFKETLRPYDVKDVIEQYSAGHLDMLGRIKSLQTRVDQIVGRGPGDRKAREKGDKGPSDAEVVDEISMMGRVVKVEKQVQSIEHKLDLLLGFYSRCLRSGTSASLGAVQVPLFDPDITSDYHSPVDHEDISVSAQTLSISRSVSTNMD
T6 sequence (P51787 whole entry): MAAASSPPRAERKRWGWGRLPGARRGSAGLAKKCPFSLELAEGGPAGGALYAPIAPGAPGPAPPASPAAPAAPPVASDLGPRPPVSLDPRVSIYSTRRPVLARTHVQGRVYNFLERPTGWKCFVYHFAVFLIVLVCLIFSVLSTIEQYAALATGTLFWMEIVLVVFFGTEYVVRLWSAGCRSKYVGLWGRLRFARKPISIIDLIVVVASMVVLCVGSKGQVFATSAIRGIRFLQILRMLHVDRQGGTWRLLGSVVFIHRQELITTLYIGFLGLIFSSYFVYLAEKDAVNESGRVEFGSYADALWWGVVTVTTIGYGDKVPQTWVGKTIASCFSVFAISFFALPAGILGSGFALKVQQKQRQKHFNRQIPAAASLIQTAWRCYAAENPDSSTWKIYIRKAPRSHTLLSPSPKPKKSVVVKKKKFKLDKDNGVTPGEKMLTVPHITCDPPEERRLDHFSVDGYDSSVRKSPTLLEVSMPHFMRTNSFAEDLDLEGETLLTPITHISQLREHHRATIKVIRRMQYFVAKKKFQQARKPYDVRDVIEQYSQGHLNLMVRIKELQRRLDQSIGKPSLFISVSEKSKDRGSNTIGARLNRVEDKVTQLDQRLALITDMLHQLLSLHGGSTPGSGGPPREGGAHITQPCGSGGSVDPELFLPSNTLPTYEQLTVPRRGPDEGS
T2 sequence (P51787 whole entry): as above
T4 sequence (O43525 whole entry): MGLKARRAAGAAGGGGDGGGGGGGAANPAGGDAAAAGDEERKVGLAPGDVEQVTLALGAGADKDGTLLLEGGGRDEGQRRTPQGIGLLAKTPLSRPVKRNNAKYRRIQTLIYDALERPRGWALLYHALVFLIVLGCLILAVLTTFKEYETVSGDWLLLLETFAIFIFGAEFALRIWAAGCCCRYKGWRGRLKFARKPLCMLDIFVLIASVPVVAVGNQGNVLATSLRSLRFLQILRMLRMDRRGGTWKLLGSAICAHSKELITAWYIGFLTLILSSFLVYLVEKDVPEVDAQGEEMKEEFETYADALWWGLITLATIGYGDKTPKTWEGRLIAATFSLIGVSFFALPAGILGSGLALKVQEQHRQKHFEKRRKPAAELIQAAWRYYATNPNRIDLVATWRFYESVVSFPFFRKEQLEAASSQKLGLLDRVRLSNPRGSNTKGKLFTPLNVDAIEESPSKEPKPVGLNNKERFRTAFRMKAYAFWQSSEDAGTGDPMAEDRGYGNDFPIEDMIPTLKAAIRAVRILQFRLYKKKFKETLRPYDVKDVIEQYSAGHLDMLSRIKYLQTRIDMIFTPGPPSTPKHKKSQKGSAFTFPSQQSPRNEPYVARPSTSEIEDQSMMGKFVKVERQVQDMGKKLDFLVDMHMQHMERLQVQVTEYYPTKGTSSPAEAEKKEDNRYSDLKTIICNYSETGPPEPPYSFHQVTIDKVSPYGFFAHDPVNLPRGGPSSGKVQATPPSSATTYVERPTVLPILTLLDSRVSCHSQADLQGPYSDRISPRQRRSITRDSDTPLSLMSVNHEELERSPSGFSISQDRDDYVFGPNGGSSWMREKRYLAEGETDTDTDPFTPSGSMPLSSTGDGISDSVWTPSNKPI
T5 sequence (Q9NR82 whole entry): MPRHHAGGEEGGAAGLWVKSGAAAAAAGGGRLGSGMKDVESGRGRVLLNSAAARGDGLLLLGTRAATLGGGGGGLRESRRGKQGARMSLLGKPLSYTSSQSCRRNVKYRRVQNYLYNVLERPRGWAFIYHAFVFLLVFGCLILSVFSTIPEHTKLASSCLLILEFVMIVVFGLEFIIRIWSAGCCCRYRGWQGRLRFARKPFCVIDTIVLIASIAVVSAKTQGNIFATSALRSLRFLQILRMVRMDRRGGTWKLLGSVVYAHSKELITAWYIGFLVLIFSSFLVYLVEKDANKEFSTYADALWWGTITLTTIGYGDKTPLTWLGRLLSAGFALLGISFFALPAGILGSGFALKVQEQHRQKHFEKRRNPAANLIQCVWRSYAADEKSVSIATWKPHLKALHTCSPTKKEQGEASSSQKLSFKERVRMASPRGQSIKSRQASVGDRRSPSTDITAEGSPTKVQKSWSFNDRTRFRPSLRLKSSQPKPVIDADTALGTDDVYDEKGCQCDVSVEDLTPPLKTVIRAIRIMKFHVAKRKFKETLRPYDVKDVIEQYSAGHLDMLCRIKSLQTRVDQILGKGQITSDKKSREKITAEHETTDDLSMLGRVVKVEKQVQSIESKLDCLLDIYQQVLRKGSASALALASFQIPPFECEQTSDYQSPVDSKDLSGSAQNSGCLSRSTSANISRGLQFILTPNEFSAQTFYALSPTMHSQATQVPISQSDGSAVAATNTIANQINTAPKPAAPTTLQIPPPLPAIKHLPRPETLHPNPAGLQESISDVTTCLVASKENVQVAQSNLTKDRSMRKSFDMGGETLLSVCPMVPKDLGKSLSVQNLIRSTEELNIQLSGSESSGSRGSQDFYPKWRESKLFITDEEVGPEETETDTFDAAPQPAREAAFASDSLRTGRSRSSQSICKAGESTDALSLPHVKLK
T1 sequence (O43526 whole entry): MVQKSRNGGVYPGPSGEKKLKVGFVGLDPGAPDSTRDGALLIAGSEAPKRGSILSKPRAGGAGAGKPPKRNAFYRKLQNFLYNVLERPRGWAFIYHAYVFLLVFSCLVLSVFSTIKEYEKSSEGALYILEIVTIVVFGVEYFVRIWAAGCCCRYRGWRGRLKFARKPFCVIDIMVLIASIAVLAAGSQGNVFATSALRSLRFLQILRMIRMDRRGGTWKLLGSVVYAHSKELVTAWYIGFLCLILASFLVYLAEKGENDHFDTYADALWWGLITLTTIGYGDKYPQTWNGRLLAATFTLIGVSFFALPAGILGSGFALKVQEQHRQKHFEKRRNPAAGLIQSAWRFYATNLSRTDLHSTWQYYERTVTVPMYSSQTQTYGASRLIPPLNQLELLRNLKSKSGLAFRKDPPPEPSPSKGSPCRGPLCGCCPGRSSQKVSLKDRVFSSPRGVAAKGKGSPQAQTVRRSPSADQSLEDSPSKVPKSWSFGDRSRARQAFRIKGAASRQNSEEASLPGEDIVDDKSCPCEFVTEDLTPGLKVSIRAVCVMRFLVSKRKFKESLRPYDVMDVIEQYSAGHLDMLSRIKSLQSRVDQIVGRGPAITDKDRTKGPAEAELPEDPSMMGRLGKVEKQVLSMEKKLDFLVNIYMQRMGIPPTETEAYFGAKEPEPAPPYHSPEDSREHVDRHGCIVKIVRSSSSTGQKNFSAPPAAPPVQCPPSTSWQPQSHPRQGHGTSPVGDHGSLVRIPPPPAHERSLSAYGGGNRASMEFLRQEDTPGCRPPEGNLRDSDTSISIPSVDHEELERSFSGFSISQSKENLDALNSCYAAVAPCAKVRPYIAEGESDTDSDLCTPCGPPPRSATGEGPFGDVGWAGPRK

CC(=O)c1c(O)c(C)c(O)c(Cc2c(O)c3c(c(C(=O)/C=C/c4ccccc4)c2O)OC(C)(C)C=C3)c1O [rottlerin, 5,7-dihydroxy-2,2-dimethyl-6-(2,4,6-trihydroxy-3-methyl-5-acetylbenzyl)-8-cinnamoyl-1,2-chromene]
pIC50 (PKCδ): 5.22 to 5.52 | pIC50 (other PKC isozymes): 4.00 to 4.52 | effect on currents (Kv7.2): no significant effect | pEC50 (Kv7.1): 5.83 | effect on currents (Kv7.1; Kv7.1, different concentrations): significant robust activation | pEC50 (Kv7.4): 6.83 | effect on currents (Kv7.4; Kv7.4, different concentrations): significant robust activation | potency on Kv7.4 relative to Kv7.1/KCNE1 (Kv7.4; more potent on Kv7.4 than on cardiac and epithelial Kv7.1/KCNE1): about 30 fold | effect on currents (Kv7.3): no significant effect | effect on currents (Kv7.5): no significant effect | pEC50 (Kv7.1/KCNE1): 5.31 | effect on currents (Kv7.1/KCNE1; Kv7.1/KCNE1, different concentrations): significant robust activation
